One assay can be described thus: 35Cl NMR transport assay. It is filed as biochemical. The settings on record: vesicles with NaCl and Co2+ inside, Co2+-free Na2SO4 buffer outside; 2 mol %. As to the method:
FIG. 2A illustrates ^35Cl NMR spectra of a suspension of giant vesicles (29 mM EYPC, 100 mM NaCl, 10 mM CoCl2, 10 mM NanH3-nPO4, n=1, 2 pH 5.3) suspended in 75 mM […] buffer (NanH3-nPO4, n=1, 2, pH spectra correspond to a) giant vesicles in the absence of 3, b) giant vesicles after application of 2 mol % 3 in DMSO, c) vesicles after lysis with Triton X-100.
Liposome Preparation for ^35Cl NMR Assays. Egg yolk L-α-phosphatidylcholine (1.0 mg/mL EYPC ethanol solution, 250 μL, […]) was dissolved in a CHCl3/MeOH mixture, the solution was evaporated under reduced pressure and the resulting thin film was dried under high vacuum for 2.5 h. The lipid film was hydrated in 1.0 mL of phosphate buffer (9:1 H2O:D2O, 10 mM sodium phosphate, pH=5.4, 100 mM NaCl) containing 10 mM CoCl2 (^35Cl shift reagent) for 40 min. During hydration, the suspension was submitted to 5 freeze-thaw cycles (liquid nitrogen, water at rt). The giant liposome suspension (1 mL) was submitted to high-pressure extrusion at rt (41 passes through a 5.0 μm polycarbonate membrane). […]
^35Cl NMR Measurements. All ^35Cl NMR spectra were recorded on a Bruker DRX500 instrument operating at 49.0023 MHz for the ^35Cl resonance and chemical shift values are reported in ppm relative to 25 mM NaCl in D2O at 0 ppm (external standard). […]

Assay [1] can be described thus: liposome potential assay with safranin O. The assay is classed as biochemical. As to the method:
FIG. 3 illustrates liposome potential assays. Suspension of EYPC LUVs in phosphate buffer was used (10 m M Nan H3-n PO4, n=1, 2, pH 6.4, 100 m M KCl or 75 m M Na2 H3-n PO4, n=1, 2, pH 6.4, 100 m M KCl or 75 m M NA2 SO4 inside and 100 m M NaCl, 60 nM safranin O, ex 480 nm, em 520 nm, outside). Legend for trace denotes the formation of potential in: —KCl vesicles upon application of valinmycin·Na2SO4 vesicles upon application of 3, —KCl vesicles upon application of 3, —Na2SO4 vesicles upon application of valinomycin.
Analysis of pH changes in the liposomes experiencing a CT gradient. a) Outwardly directed gradient of Cl:HPTS-loaded vesicles (100 μL of the stock solution), filled with a saline phosphate buffer (10 mM sodium phosphate, pH 6.4, 100 mM NaCl) were suspended in 1.9 mL of an isosmotic phosphate sulfate buffer (10 mM sodium phosphate, pH 6.0, 75 mM Na2SO4) and placed into a fluorimetric cell. The emission of HPTS at 510 nm was monitored with excitation wavelengths at 403 and 460 nm simultaneously. During the experiment, 20 μL of a 0-2 mM DMSO solution of the compound of interest was added through an injection port. Intravesicular pH values were obtained as described for pH-stat transport assays. At the end of experiment, the aqueous compartment of liposomes was equilibrated with extravesicular solution by lysis of liposomes with detergent (40 μL of 5% aqueous Triton X100). b) Inwardly directed gradient of Cl:HPTS-loaded vesicles (100 μL of the stock solution), filled with a isoosimomolar sulfate phosphate buffer (10 mM sodium phosphate, pH 6.0, 75 mM Na2SO4) were suspended in 1.9 mL of an isosmotic phosphate saline buffer (10 mM sodium phosphate, pH 6.4, 100 mM NaCl) and placed into a fluorimetric cell. Further analysis was conducted as described for the case of an outwardly directed gradient of […]. Analysis of the electrostatic potential on the surface of liposomes. LUVs (100 μL of stock solution, 100 mM KCl inside and outside or 75 mM Na2SO4 inside and outside) were suspended in 1.9 mL of 100 mM NaCl buffer containing 60 nM safranin O (a potential-sensitive dye). Safranin O emission was monitored at 580 nm with excitation at 520 nm. During the course of the experiment, 20 μL of a 0-0.12 mM DMSO solution of valinomycin or 0-2 mM of 3-8 DMSO solution was added. Experiments were completed by injection of 20 μL of 1 mM aqueous solution of the defect-inductive peptide melittin.

In the case of `CCCCNC(=O)COc1ccccc1Cc1cccc(Cc2ccccc2OCC(=O)NCCCC)c1OCC(=O)NCCCC` [trimer 3, Tris-(N-butyl-2-phenoxyacetamide)], in “35Cl NMR transport assay”, the “outward Cl− transport (35Cl NMR signal)” value is on record as “enhancement of the extravesicular Cl^− peak”. Besides, in assay [1] (Na2SO4 inside, NaCl outside, safranin O outside, 1 mol %), the transmembrane potential formed entry is listed as “stable negative charge inside liposomes”. In addition, the “time to formation of the transmembrane potential” value in assay [1] (Na2SO4 inside, NaCl outside, 1 mol %) is no more than 2 min. The “ability to create a transmembrane potential” value in assay [1] (Na2SO4 vesicles in NaCl buffer (conditions of the trimer)) is “created transmembrane potential”. Moreover, the “magnitude of the transmembrane potential” value in assay [1] (inwardly directed Cl− gradient, compared with valinomycin in liposomes with 100 mM KCl inside, 100 mM NaCl outside) is reported as “comparable to that generated by 0.12 mol % valinomycin”.
